Test results published in US20240158348A1, “HERBICIDAL CYCLIC AMIDES N-SUBSTITUTED WITH A HALOALKYLSULFONYLANILIDE GROUP” (FMC Corporation, priority 2021, published 2024).

Key:
Type in all cases: in vivo
[1] = system: blackgrass (Alopecurus myosuroides); assay: Test C preemergence, blackgrass; conditions: 0 is no effect, 100 is complete control
How it was run: (§1)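 Herbicidal effect was estimated visually on a 0–100 scale 10 or 12 days after spraying. Formulation: non-phytotoxic solvent mixture with surfactant. Timing: directed soil spray after sowing, or postemergence on seedlings bearing one or two leaves.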

[2] = system: oat, wild (wild oat, Avena fatua); assay: Test C preemergence, wild oat; conditions: 0 is no effect, 100 is complete control
How it was run: as §1

[3] = system: pigweed, palmer (palmer amaranth, Amaranthus palmeri); assay: Test C preemergence, palmer amaranth; conditions: 0 is no effect, 100 is complete control
How it was run: as §1

[4] = system: ragweed (common ragweed, Ambrosia artemisiifolia); assay: Test C preemergence, ragweed; conditions: 0 is no effect, 100 is complete control
How it was run: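 Pre: soil sprayed at seeding. Post: seedlings treated at 1–2 leaves (2–10 cm). Vehicle non-phytotoxic solvent mix with surfactant; loam–sand medium; greenhouse; visual injury read at 10 or 12 days, scale 0–100.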

[5] = system: soybean (Glycine max); assay: Test C preemergence, soybean; conditions: 0 is no effect, 100 is complete control
How it was run: as §1

[6] = system: corn (Zea mays); assay: Test C postemergence, corn; conditions: for Corn plant response rating: visual injury, 0 to 100 scale (0 no effect, 100 complete control); for Plant response rating (0 to 100 scale), Corn: 0 is no effect, 100 is complete control
[7] = system: goosegrass (Eleusine indica); assay: Test C postemergence, goosegrass; conditions: for Goosegrass plant response rating: visual injury, 0 to 100 scale (0 no effect, 100 complete control); for Plant response rating (0 to 100 scale), Goosegrass: 0 is no effect, 100 is complete control
How it was run: as §1

[8] = system: horseweed (Erigeron canadensis); assay: Test C postemergence, horseweed; conditions: for Horseweed plant response rating: visual injury, 0 to 100 scale (0 no effect, 100 complete control); for Plant response rating (0 to 100 scale), Horseweed: 0 is no effect, 100 is complete control
How it was run: as §1

[9] = system: ducksalad (Heteranthera limosa); assay: Test D flooded paddy test, ducksalad; set-up: key: 0 = no effect, 100 = complete control; conditions: 250 g ai/ha, Flood; applied to paddy water at 2-leaf stage; visual rating after 13 days; scale 0 (no effect) to 100 (complete control)
How it was run: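 Test compounds applied directly to paddy water after pots were flooded to 3 cm above soil, with plants at 2-leaf stage; depth held throughout. Greenhouse for 13 days, then visual rating versus controls on 0–100 scale (0 no effect, 100 complete control); dash means no result.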

SMILES	Plant response rating (0 to 100 scale), Blackgrass ([1]; 31 g ai/ha Preemergence)	Plant response rating (0 to 100 scale), Blackgrass ([1]; 125 g ai/ha Preemergence)	Plant response rating (0 to 100 scale), Oat, Wild ([2]; 31 g ai/ha Preemergence)	Plant response rating (0 to 100 scale), Oat, Wild ([2]; 125 g ai/ha Preemergence)	Plant response rating (0 to 100 scale), Pigweed, Palmer ([3]; 31 g ai/ha Preemergence)	Plant response rating (0 to 100 scale), Pigweed, Palmer ([3]; 125 g ai/ha Preemergence)	Plant response rating (0 to 100 scale), Ragweed ([4]; 31 g ai/ha Preemergence)	Plant response rating (0 to 100 scale), Ragweed ([4]; 125 g ai/ha Preemergence)	Plant response rating (0 to 100 scale), Soybean ([5]; 31 g ai/ha Preemergence)	Plant response rating (0 to 100 scale), Soybean ([5]; 125 g ai/ha Preemergence)	Corn plant response rating ([6]; 31 g ai/ha Postemergence)	Plant response rating (0 to 100 scale), Corn ([6]; 125 g ai/ha Postemergence)	Goosegrass plant response rating ([7]; 31 g ai/ha Postemergence)	Plant response rating (0 to 100 scale), Goosegrass ([7]; 125 g ai/ha Postemergence)	Horseweed plant response rating ([8]; 31 g ai/ha Postemergence)	Plant response rating (0 to 100 scale), Horseweed ([8]; 125 g ai/ha Postemergence)	Plant response rating, Ducksalad [9]	Corn plant response rating ([6]; 125 g ai/ha Postemergence)	Goosegrass plant response rating ([7]; 125 g ai/ha Postemergence)	Horseweed plant response rating ([8]; 125 g ai/ha Postemergence)
Cc1cc(C)c(N2CCC(OC3COC3)C2=O)cc1NS(=O)(=O)C(F)(F)F (centres unmarked) [Compound 34]	30	50	30	80	100	100	50	100	40	90	60	90	30	80	90	100	65	–	–	–
CC#CCOC1CCN(c2cc(NS(=O)(=O)C(F)(F)F)c(C)cc2C)C1=O (centres unmarked) [Compound 60]	80	90	90	100	100	100	90	100	50	90	90	–	80	–	80	–	90	100	90	100
Cc1cc(Cl)c(N(COC(=O)C(C)(C)C)S(=O)(=O)C(F)(F)F)cc1N1CCC(OC2CC2)C1=O (centres unmarked) [Compound 33]	20	80	10	50	70	80	30	80	0	60	80	90	60	90	70	100	80	–	–	–
CC(=O)N(c1cc(N2CCC(OC3CC3)C2=O)c(C)cc1Cl)S(=O)(=O)C(F)(F)F (centres unmarked) [Compound 38]	80	90	30	100	90	100	70	90	80	90	80	90	30	90	90	100	65	–	–	–
